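Each compound was tested at five concentrations against cells in 96-well plates for 48 hours. Here, GI50 denotes the concentration required for 50% inhibition of growth. TGI is the concentration that stops growth completely.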
Legend:
Assay in all cases: NCI anticancer screen, dose series, 48 h
NCI-H460 lung = test system: NCI-H460 lung
SNB-75 CNS = test system: SNB-75 CNS
OVCAR-3 ovarian = test system: OVCAR-3 ovarian
SN12C renal = test system: SN12C renal
SK-MEL-2 melanoma = test system: SK-MEL-2 melanoma
HT29 colon = test system: HT29 colon
HOP-92 NSCLC = test system: HOP-92 NSCLC
NCI-H226 lung = test system: NCI-H226 lung
MDA-MB-435 = test system: MDA-MB-435
MDA-MB-231 breast = test system: MDA-MB-231 breast

Structure (SMILES)	TGI (NCI-H460 lung) [µM]	TGI (SNB-75 CNS) [µM]	TGI (OVCAR-3 ovarian) [µM]	TGI (SN12C renal) [µM]	TGI (SK-MEL-2 melanoma) [µM]	TGI (HT29 colon) [µM]	TGI (HOP-92 NSCLC) [µM]	TGI (NCI-H226 lung) [µM]	GI50 (MDA-MB-435) [µM]	TGI (MDA-MB-435) [µM]	GI50 (NCI-H460 lung) [µM]	GI50 (MDA-MB-231 breast) [µM]	TGI (MDA-MB-231 breast) [µM]	GI50 (NCI-H226 lung) [µM]	GI50 (SNB-75 CNS) [µM]	GI50 (OVCAR-3 ovarian) [µM]	GI50 (SN12C renal) [µM]	GI50 (SK-MEL-2 melanoma) [µM]	GI50 (HOP-92 NSCLC) [µM]	GI50 (HT29 colon) [µM]
Clc1ccc(C2N3CCCCC3[C@@H]3c4[nH]c5ccccc5c4CCN23)cc1 (stereo partly specified)	> 100	> 100	> 100	> 100	> 100	49.9	> 100	–	–	–	–	–	–	–	–	–	–	–	–	–
N#CC(C(=N/O)/C(=N/O)C(C#N)c1ccc(Cl)cc1)c1ccc(Cl)cc1 (stereo unspecified)	> 100	> 100	> 100	> 100	> 100	> 100	> 100	> 100	–	–	–	–	–	–	–	–	–	–	–	–
CCCCNC1=C(C(=O)OCC)C(=O)CO1	> 100	> 100	> 100	> 100	> 100	> 100	–	> 100	–	–	–	–	–	–	–	–	–	–	–	–
Cc1c(C(=O)N/N=C/c2ccc(Cl)cc2)nnn1-c1ccnc2c(C(F)(F)F)cccc12	15.8	5.18	26.4	15.5	54.9	–	16.2	8.32	4.46	21.3	4.49	2.17	6.08	2.77	2.63	12	3.51	18.1	3.62	–
Cc1ccc(-c2c3c([nH]c(=O)c2C#N)-c2cc(F)ccc2OC3)cc1	> 100	> 100	81.9	> 100	98.4	> 100	> 100	–	35.8	> 100	53.4	34.8	> 100	–	> 100	25.4	> 100	55.4	> 100	> 100
CCCCN(CCCC)C(=O)C(=O)C(C#N)c1ccc(C)cc1 (stereo unspecified)	> 100	> 100	> 100	> 100	> 100	> 100	> 100	> 100	–	–	–	–	–	–	–	–	–	–	–	–
CC12CC[C@@H](C(C)(C)O)C1[C@@H](O)CC1(C)C2CCC2[C@@]3(C)CC[C@H](O)C(C)(C)C3C(O)C[C@]21C (stereo partly specified)	37.5	–	35.3	29.9	36.8	31.1	37.5	–	–	–	–	–	–	–	–	–	–	–	–	–
CCOC(=O)NC(=O)c1cn(C2OC(COC(=O)CCCCCCCCC(=O)OCC3OC(n4cc(C(=O)NC(=O)OCC)c(=O)[nH]c4=O)C(O)C3O)C(O)C2O)c(=O)[nH]c1=O (stereo unspecified)	> 100	> 100	> 100	> 100	> 100	> 100	–	> 100	–	–	–	–	–	–	–	–	–	–	–	–
O=C1OCc2c1cc1ccc(O)c(OC3OC(CO)C(O)C(O)C3O)c1c2-c1ccc2c(c1)OCO2 (stereo unspecified)	> 100	> 100	> 100	> 100	> 100	> 100	–	> 100	–	–	–	–	–	48.4	55.2	64.6	–	33.5	–	–
CN(C(=O)C12C3C4C1C1C2C3C41C(=O)C(C)(C)C)C(C)(C)C (stereo unspecified)	–	> 100	> 100	> 100	> 100	> 100	–	–	–	–	–	–	–	–	–	–	–	–	–	–
CCNCCNc1cc(-c2ccc(C(=O)OC)cc2)c(C#N)c2nc3ccccc3n12	3.31	3.17	2.88	8.33	31.5	4.47	4.36	8.39	1.71	3.47	1.42	–	–	2.02	1.53	1.35	2.68	5.15	2.23	1.6
O=C(O)Cn1ccc(=O)c2ccc([N+](=O)[O-])cc21	> 100	> 100	> 100	> 100	> 100	> 100	–	> 100	–	> 100	–	–	78.5	–	–	–	–	–	–	–
N#C/C(=C/c1ccsc1)C(=O)c1ccccc1	> 100	> 100	> 100	> 100	> 100	> 100	> 100	> 100	–	–	–	–	–	–	–	–	–	–	–	–
O=C(N/N=C/c1ccccc1O)c1cccc([N+](=O)[O-])c1	> 100	–	6.73	> 100	> 100	> 100	–	–	–	–	–	–	–	–	–	–	–	–	–	–
Cc1nc2cccc([N+](=O)[O-])c2c(NCCCN(C)C)c1C	> 59.6	> 100	> 63.9	16.1	> 85.6	55.3	> 100	> 90.4	–	> 100	–	–	–	–	–	–	–	–	–	–
CC1(Cl)C(=O)NC(=O)N(C2CC(N=[N+]=[N-])C(CO)O2)C1N=[N+]=[N-] (stereo unspecified)	> 100	> 100	> 100	> 100	> 100	> 100	> 100	–	–	–	–	–	–	–	–	–	–	–	–	–
Cc1ccc(C)c(NC(=O)CC/C(=N\NC(=O)C(=O)NN)C(C)C(=O)c2ccc(O)cc2)c1 (stereo unspecified)	> 100	> 100	> 100	> 100	> 100	> 100	> 100	> 100	–	–	–	–	–	–	–	–	–	–	–	–
COc1ccc2[nH]c3c(C)c4c(c(C)c3c2c1)CN(C)CC4	24.8	36.4	30.3	30.6	31.5	20.2	32.2	30.8	–	–	–	–	–	–	–	–	–	–	–	–
O=C1/C(=C/c2ccc(Cl)cc2Cl)N=C(c2ccccc2)N1Cc1ccco1	> 100	–	45.5	36.1	48.5	–	47.4	67.6	43.6	> 100	26.6	17.6	49.3	23.9	–	22.6	18.7	15.8	20.7	–
Cc1nn(CN2CCN(C)CC2)c(=S)n1/N=C/c1cccc2ccccc12	41.6	38.1	36	39.2	39	–	46.5	34.9	18.6	43	20.3	19.3	44.4	17.1	11.1	18	24.4	20.1	19.9	–

Source: PubChem BioAssay (NCI)
